Measured values from article PMC11850817 (Scientific Reports, 2025).
Where two headings read alike, the source gives them in different places.

Tests used:
EBC-1 = test: MTT antiproliferative assay, EBC-1; format: cell-based, human; conditions: read-out: IC50 EBC-1
AsPC-1 = test: MTT antiproliferative assay, AsPC-1; format: cell-based, human; conditions: read-out: IC50 AsPC-1
Mia-Paca-2 = test: MTT antiproliferative assay, Mia-Paca-2; format: cell-based, human; conditions: read-out: IC50 Mia-Paca-2
HT-29 = test: MTT antiproliferative assay, HT-29; format: cell-based, human; conditions: read-out: IC50 HT-29
MCF-7 = test: MTT antiproliferative assay, MCF-7; format: cell-based, human; conditions: read-out: IC50 MCF-7
NIH3T3 = test: MTT assay, NIH3T3 non-cancer cell line; format: cell-based; conditions: read-out: IC50 NIH3T3
CDK2/cyclin A = CDK2/cyclin A (Homo sapiens, UniProt P24941); test: Radiometric kinase assay; format: biochemical; conditions: for inhibition at 10 µM: read-out: Kinase inhibition (%) CDK2/cyclin A
FLT3 = FLT3 (Homo sapiens, UniProt P36888); test: Radiometric kinase assay; format: biochemical; conditions: read-out: Kinase inhibition (%) FLT3
FLT4 (VEGFR3) = FLT4 (VEGFR3) (Homo sapiens, UniProt P35916); test: Radiometric kinase assay; format: biochemical; conditions: for inhibition at 10 µM: read-out: Kinase inhibition (%) FLT4 (VEGFR3)
Sequence of FLT4 (VEGFR3) (P35916 25-1363): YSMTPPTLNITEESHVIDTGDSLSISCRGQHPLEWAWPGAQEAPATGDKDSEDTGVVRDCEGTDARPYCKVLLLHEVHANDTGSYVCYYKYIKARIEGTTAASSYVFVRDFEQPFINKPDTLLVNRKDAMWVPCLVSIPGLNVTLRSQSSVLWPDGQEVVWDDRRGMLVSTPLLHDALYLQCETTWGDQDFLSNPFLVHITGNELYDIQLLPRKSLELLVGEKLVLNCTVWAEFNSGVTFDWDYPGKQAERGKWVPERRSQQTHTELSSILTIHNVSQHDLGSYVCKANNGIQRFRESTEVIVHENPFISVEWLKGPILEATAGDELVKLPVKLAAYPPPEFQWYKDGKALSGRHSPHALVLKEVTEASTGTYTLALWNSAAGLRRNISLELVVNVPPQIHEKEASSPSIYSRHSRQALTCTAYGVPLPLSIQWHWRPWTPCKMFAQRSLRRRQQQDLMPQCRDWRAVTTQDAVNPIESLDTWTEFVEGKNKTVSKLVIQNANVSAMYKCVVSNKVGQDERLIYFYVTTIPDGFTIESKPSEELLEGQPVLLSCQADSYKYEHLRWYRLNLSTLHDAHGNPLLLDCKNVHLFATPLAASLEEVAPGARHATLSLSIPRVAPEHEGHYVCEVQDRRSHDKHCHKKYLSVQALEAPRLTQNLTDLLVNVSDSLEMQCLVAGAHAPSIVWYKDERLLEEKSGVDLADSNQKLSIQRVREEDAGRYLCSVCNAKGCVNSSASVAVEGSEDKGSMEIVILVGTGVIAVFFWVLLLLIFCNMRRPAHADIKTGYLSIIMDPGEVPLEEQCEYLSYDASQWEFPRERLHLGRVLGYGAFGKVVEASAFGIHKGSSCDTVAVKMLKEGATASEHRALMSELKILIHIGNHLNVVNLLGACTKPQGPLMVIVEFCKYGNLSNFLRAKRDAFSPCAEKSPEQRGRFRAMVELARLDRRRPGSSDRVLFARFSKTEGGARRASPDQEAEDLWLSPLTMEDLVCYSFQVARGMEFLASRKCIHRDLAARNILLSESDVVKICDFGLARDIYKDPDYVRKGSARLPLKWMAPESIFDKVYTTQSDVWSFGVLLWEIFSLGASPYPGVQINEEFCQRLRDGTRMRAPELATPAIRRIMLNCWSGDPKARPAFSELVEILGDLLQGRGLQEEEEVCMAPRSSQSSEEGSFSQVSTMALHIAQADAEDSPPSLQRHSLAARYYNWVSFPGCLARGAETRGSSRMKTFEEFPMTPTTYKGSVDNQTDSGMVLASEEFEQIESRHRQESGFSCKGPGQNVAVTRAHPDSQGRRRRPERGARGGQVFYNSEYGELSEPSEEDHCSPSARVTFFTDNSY

KDR (VEGFR2) = KDR (VEGFR2) (Homo sapiens, UniProt P35968); test: Radiometric kinase assay; format: biochemical; conditions: read-out: Kinase inhibition (%) KDR (VEGFR2)
Sequence of KDR (VEGFR2) (P35968 20-1356): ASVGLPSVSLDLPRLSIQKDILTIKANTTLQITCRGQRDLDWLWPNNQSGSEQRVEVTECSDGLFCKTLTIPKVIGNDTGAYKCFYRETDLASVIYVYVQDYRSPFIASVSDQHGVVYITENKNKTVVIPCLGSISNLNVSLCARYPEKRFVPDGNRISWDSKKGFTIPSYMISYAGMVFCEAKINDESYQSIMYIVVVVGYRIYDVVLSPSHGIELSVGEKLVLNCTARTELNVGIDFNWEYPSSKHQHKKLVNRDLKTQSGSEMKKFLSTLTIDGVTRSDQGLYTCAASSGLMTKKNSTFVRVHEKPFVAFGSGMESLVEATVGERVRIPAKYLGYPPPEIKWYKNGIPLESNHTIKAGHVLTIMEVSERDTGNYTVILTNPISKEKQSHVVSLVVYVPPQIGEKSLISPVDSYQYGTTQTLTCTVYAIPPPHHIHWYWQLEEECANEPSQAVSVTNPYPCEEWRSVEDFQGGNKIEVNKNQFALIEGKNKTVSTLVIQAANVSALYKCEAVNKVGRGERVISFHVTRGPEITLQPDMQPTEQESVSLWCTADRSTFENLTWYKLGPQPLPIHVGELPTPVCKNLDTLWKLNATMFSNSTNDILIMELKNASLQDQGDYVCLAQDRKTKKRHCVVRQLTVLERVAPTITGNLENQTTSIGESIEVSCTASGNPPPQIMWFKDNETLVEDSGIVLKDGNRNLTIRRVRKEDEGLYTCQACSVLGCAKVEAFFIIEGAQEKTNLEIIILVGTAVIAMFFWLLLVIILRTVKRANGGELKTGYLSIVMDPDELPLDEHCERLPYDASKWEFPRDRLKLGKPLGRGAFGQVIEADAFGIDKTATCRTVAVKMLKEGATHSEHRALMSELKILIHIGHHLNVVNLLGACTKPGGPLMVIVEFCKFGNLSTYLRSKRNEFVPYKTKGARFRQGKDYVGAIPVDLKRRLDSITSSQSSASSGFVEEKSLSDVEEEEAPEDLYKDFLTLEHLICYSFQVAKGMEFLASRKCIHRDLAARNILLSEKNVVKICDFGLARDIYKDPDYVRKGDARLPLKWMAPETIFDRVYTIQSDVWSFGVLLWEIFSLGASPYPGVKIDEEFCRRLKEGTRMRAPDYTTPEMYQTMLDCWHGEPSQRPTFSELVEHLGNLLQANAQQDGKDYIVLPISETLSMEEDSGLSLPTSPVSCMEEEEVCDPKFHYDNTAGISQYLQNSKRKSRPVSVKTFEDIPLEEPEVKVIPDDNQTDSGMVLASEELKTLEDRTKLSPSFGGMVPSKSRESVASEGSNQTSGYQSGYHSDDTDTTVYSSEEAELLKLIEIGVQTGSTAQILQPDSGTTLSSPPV

MET = MET (Homo sapiens, UniProt P08581); test: Radiometric kinase assay; format: biochemical; conditions: read-out: Kinase inhibition (%) MET
Sequence of MET (P08581 25-1390): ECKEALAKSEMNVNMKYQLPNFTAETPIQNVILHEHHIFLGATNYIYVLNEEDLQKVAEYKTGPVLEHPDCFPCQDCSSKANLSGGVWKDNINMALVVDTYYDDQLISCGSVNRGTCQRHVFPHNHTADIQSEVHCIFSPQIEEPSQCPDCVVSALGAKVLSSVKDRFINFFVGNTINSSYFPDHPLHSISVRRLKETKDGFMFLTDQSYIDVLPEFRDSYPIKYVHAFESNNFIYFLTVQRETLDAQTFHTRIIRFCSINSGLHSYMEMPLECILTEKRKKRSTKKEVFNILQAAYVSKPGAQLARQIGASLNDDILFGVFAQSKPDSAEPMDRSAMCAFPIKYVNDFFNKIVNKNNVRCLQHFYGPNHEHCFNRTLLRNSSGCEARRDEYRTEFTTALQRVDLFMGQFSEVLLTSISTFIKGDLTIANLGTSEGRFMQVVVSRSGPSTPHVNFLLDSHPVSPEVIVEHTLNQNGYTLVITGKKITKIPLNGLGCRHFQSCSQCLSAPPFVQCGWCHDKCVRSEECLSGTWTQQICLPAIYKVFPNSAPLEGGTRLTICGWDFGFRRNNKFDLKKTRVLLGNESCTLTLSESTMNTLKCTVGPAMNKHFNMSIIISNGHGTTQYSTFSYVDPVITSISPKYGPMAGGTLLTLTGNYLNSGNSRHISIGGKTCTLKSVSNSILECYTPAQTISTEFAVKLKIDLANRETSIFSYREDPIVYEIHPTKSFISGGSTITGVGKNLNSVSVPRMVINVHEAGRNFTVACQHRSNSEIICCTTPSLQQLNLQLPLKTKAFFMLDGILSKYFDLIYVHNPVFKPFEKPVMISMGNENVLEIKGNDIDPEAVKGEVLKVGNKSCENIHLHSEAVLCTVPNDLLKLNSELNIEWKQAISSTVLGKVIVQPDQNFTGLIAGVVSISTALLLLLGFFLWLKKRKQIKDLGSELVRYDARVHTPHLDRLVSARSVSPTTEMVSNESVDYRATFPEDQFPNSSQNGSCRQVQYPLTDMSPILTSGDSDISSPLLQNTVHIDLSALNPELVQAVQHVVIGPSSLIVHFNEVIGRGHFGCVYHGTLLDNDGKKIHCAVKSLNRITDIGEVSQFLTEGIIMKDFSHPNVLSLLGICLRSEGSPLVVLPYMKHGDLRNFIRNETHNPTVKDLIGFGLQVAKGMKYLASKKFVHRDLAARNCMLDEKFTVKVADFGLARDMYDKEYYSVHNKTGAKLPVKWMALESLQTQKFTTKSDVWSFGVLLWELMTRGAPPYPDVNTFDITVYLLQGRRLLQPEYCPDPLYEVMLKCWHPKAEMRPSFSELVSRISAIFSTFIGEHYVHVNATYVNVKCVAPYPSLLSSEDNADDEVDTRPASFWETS

NTRK1 (TrkA) = NTRK1 (TrkA) (Homo sapiens, UniProt P04629); test: Radiometric kinase assay; format: biochemical; conditions: read-out: Kinase inhibition (%) NTRK1 (TrkA)
PDGFRA (PDGFRα) = PDGFRA (PDGFRα) (Homo sapiens, UniProt P16234); test: Radiometric kinase assay; format: biochemical; conditions: for inhibition at 10 µM: read-out: Kinase inhibition (%) PDGFRA (PDGFRα)
Sequence of PDGFRA (PDGFRα) (P16234 24-1089): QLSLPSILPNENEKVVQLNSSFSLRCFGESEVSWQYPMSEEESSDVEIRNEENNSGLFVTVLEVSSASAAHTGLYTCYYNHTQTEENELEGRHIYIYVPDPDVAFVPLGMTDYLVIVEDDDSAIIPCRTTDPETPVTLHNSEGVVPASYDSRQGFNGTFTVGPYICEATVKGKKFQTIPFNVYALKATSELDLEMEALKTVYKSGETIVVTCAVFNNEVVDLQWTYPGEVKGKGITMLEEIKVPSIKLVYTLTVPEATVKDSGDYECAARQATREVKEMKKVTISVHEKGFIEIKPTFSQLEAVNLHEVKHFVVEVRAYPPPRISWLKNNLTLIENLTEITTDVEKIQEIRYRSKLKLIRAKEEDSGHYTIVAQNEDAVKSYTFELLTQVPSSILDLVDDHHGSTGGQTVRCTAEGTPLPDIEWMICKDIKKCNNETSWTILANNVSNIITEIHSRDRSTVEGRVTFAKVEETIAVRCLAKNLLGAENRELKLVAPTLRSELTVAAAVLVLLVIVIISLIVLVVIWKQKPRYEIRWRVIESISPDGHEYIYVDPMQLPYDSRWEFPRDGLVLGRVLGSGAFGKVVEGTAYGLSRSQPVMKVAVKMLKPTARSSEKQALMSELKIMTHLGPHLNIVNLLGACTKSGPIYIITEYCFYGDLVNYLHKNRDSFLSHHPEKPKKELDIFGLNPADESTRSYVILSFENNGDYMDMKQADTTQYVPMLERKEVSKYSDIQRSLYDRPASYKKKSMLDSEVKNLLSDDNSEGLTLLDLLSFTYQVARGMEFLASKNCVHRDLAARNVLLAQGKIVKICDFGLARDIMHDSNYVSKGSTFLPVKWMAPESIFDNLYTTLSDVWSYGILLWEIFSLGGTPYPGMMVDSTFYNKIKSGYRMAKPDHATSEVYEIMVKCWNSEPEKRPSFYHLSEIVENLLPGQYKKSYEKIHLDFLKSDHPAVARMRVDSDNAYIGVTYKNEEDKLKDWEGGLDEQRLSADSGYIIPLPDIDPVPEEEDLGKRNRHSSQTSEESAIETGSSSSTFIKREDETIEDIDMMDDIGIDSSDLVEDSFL

AXL = molecular target: T1, AXL (Homo sapiens, UniProt P30530); test: Radiometric kinase assay; format: biochemical; conditions: read-out: Kinase inhibition (%) AXL
T1 sequence (P30530 26-894): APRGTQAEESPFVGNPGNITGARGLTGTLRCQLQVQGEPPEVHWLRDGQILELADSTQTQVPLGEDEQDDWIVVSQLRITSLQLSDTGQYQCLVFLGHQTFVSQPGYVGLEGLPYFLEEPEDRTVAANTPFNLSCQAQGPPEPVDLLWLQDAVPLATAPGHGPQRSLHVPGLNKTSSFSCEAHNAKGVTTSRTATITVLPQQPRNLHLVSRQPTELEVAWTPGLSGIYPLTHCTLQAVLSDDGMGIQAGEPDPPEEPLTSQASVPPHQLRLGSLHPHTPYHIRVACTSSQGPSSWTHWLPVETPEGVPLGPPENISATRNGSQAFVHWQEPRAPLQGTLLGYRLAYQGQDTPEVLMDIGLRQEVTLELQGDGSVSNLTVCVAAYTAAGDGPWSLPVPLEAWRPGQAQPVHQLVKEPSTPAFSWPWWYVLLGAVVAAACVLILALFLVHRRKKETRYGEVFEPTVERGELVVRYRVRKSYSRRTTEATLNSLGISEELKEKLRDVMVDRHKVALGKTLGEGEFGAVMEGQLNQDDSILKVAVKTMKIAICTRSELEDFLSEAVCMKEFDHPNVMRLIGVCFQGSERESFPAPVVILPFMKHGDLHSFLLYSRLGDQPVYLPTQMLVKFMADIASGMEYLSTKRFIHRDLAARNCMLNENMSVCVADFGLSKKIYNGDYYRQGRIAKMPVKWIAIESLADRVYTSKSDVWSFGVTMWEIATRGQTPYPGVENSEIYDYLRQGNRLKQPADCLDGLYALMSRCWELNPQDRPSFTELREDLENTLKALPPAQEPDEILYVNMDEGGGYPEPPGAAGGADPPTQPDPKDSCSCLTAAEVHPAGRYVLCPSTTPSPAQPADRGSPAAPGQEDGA

FLT1 (VEGFR1) = FLT1 (VEGFR1) (Homo sapiens, UniProt P17948); test: Radiometric kinase assay; format: biochemical; conditions: read-out: Kinase inhibition (%) FLT1 (VEGFR1)
NTRK2 (TrkB) = NTRK2 (TrkB) (Homo sapiens, UniProt Q16620); test: Radiometric kinase assay; format: biochemical; conditions: read-out: Kinase inhibition (%) NTRK2 (TrkB)
PDGFRB (PDGFRβ) = PDGFRB (PDGFRβ) (Homo sapiens, UniProt P09619); test: Radiometric kinase assay; format: biochemical; conditions: read-out: Kinase inhibition (%) PDGFRB (PDGFRβ)
AsPC-1 cells [1] = test: Cell cycle test, RNase/PI flow cytometry; format: cell-based, human; conditions: AsPC-1, 3, 10, 30, 50 µM, 48 h
AsPC-1 cells [2] = test: Apoptosis by Hoechst 33,258 staining; format: cell-based, human; conditions: AsPC-1, 10 and 30 µM, 48 h
[3] = test system: EBC-1, AsPC-1, Mia-Paca-2, HT-29, MCF-7 cancer cells; test: MTT antiproliferative assay, cancer cell lines summarised; format: cell-based, human; conditions: MTT
[4] = MTT, 72 h, mean ± S.E.M. of 3–5 experiments

IC50 (AsPC-1; Homo sapiens, ASPC1, 72 h) | IC50 (Mia-Paca-2; Homo sapiens, MIA PaCa-2, 72 h) | IC50 (HT-29; Homo sapiens, HT-29, 72 h) | IC50 (MCF-7; Homo sapiens, MCF7, 72 h) | SMILES | IC50 (EBC-1; Homo sapiens, EBC-1, 72 h) | IC50 (NIH3T3; Mus musculus, NIH3T3, 72 h) | also measured
21.3 ± 2.03 µM | 7.4 ± 0.6 µM | 3.7 ± 0.4 µM | 17.8 ± 2.4 µM | COc1cc2nccc(Oc3ccc(NC(=O)C4(C(=O)Nc5ccc(F)cc5)CC4)cc3)c2cc1OC [Cabozantinib, reference compound] | 0.06 ± 0.01 µM |  | 
 |  |  |  | N.N.[Cl][Pt][Cl] [Cisplatin, reference compound] |  |  | IC50 (EBC-1; [4]): 24 ± 5.5 µM; IC50 (AsPC-1; [4]): 5.4 ± 0.6 µM; IC50 (Mia-Paca-2; [4]): 22.1 ± 6.2 µM; IC50 (HT-29; [4]): 43.3 ± 17.3 µM; IC50 (MCF-7; [4]): 43.1 ± 1.9 µM; IC50 (NIH3T3; MTT, 72 h, non-cancer cell line, mean ± S.E.M.): 8.3 ± 1.4 µM
12.8 ± 2.9 µM | 45 ± 8.2 µM | 4.9 ± 0.9 µM | 22.3 ± 3.8 µM | CC(C)c1ccc(Cn2cc(COc3ccc(NC4=CC(=O)c5ccccc5C4=O)cc3)nn2)cc1 [Compound 4 g, 2-((4-((1-(4-Isopropylbenzyl)−1H-1,2,3-triazol-4-yl)methoxy)phenyl)amino) naphthalene-1,4-dione] | 2 ± 0.5 µM | 24.5 ± 5.2 µM | inhibition at 10 µM (CDK2/cyclin A): 1%; inhibition at 10 µM (FLT3): -2%; inhibition at 10 µM (FLT4 (VEGFR3)): 9%; inhibition at 10 µM (KDR (VEGFR2)): -10%; inhibition at 10 µM (MET): -11%; inhibition at 10 µM (NTRK1 (TrkA)): 6%; inhibition at 10 µM (PDGFRA (PDGFRα)): 29%
16.2 ± 2 µM | 31.3 ± 3.3 µM | 2.5 ± 0.7 µM | 20.3 ± 0.2 µM | CC(C)(C)c1ccc(Cn2cc(COc3ccc(NC4=CC(=O)c5ccccc5C4=O)cc3)nn2)cc1 [Compound 4 h, 2-((4-((1-(4-(Tert-butyl)benzyl)−1H-1,2,3-triazol-4yl)methoxy)phenyl)amino) naphthalene-1,4-dione] | 8.7 ± 1.3 µM | 46.7 ± 3.2 µM | 
34.8 ± 15.3 µM | 61 ± 6.6 µM | > 100 µM | 26.9 ± 0.2 µM | O=C1C=C(Nc2ccc(OCc3cn(Cc4ccc(F)cc4)nn3)cc2)C(=O)c2ccccc21 [Compound 4c, 2-((4-((1-(4-Fluorobenzyl)−1H-1,2,3-triazol-4-yl)methoxy)phenyl)amino) naphthalene-1,4-dione] | 13.7 ± 3.3 µM | 20.1 ± 3.3 µM | 
20.8 ± 6.8 µM | 21.3 ± 3.6 µM | 3.1 ± 0.4 µM | 15.9 ± 4.6 µM | O=C1C=C(Nc2ccc(OCc3cn(Cc4ccc(Cl)cc4)nn3)cc2)C(=O)c2ccccc21 [Compound 4d, 2-((4-((1-(4-Chlorobenzyl)−1H-1,2,3-triazol-4-yl)methoxy)phenyl)amino) naphthalene-1,4-dione] | 1.9 ± 0.3 µM | 14.4 ± 1.9 µM | 
10.5 ± 2.6 µM | 42.1 ± 12.6 µM | 1.9 ± 0.4 µM | > 100 µM | O=C1C=C(Nc2ccc(OCc3cn(Cc4cccc(Cl)c4)nn3)cc2)C(=O)c2ccccc21 [Compound 4f, 2-((4-((1-(3-Chlorobenzyl)−1H-1,2,3-triazol-4-yl)methoxy)phenyl)amino) naphthalene-1,4-dione] | 2.3 ± 0.4 µM | 29.8 ± 7.3 µM | 
5.4 ± 0.9 µM | 20.6 ± 6.2 µM | 1.3 ± 0.5 µM | 13.9 ± 0.7 µM | Cc1ccc(Cn2cc(COc3ccc(NC4=CC(=O)c5ccccc5C4=O)cc3)nn2)cc1 [Compound 4i, 2-((4-((1-(4-Methylbenzyl)−1H-1,2,3-triazol-4-yl)methoxy)phenyl)amino) naphthalene-1,4-dione] | 2.5 ± 0.3 µM | 25.5 ± 6.1 µM | inhibition at 10 µM (AXL): 8%; IC50 (CDK2/cyclin A): 11.3 ± 0.477 µM; inhibition at 10 µM (CDK2/cyclin A): 51%; inhibition at 10 µM (FLT1 (VEGFR1)): -17%; IC50 (FLT4 (VEGFR3)): 1.336 ± 0.006 µM; inhibition at 10 µM (FLT4 (VEGFR3)): 87%; inhibition at 10 µM (KDR (VEGFR2)): 28%; inhibition at 10 µM (MET): 16%; inhibition at 10 µM (NTRK2 (TrkB)): 19%; IC50 (PDGFRA (PDGFRα)): 0.22 ± 0.009 µM; inhibition at 10 µM (PDGFRA (PDGFRα)): 74%; inhibition at 10 µM (PDGFRB (PDGFRβ)): 5%; Effect on cell cycle distribution (S and G2/M phases) (AsPC-1 cells [1]): dose-dependently increased the number of cells in the S phase and simultaneously reduced the cells in G2/M phase; Apoptosis induction (nuclear morphology) (AsPC-1 cells [2]): characteristic features of apoptosis including densely packed chromatin within the nucleus as well as nuclear fragmentation
> 100 µM | > 100 µM | > 50 µM | > 100 µM | O=C1C=C(Nc2ccc(OCc3cn(CCN4C(=O)c5ccccc5C4=O)nn3)cc2)C(=O)c2ccccc21 [Compound 4j, 2-(2-(4-((4-((1,4-Dioxo-1,4-dihydronaphthalen-2-yl)amino)phenoxy)methyl)−1H-1,2,3-triazol-1-yl)ethyl)isoindoline-1,3-dione] | > 50 µM |  | Antiproliferative activity against cancer cell lines (in words) [3]: devoid of any antiproliferative potential against all cancer cells
1.73 ± 0.2 µM | 0.0881 ± 0.0526 µM | 0.6 ± 0.2 µM | 0.137 ± 0.0063 µM | COc1cccc2c1C(=O)c1c(O)c3c(c(O)c1C2=O)C[C@@](O)(C(=O)CO)C[C@@H]3O[C@H]1C[C@H](N)[C@H](O)[C@H](C)O1 [Doxorubicin, reference compound] | 0.5 ± 0.1 µM | 0.013 ± 0.0021 µM | 
